From PubChem BioAssay AID260 (DTP/NCI, 2004)
Where “and” joins values, the source holds several entries; their conditions need not be identical. Equal entries are not always repeated. Inconclusive results and toxic doses are left out.

Tested on: CD2F1 mice, intracerebral L1210 leukemia, survival T/C
Test: NCI In Vivo Anticancer Drug Screen. Data for tumor model L1210 Leukemia (intracerebral) in CD2F1 (CDF1) mice
Conditions: higher = longer survival
Method: The antitumor activity of compounds was measured in mice bearing transplantable tumors. Survival or tumor size were measured and the results are expressed as the measurement made in the treated group (T) divided by the measurement made in the vehicle treated control group (C). The tumor model used in this assay is L1210 Leukemia (intracerebral) in CD2F1 (CDF1) mice

[1] = endpoint: median survival time, dose: 8.0 mg/kg/injection, schedule: Q01DX009 (ip), vehicle: saline with Tween-80
[2] = endpoint: median survival time, dose: 16.0 mg/kg/injection, schedule: Q01DX009 (ip), vehicle: saline with Tween-80
[3] = endpoint: median survival time, dose: 32.0 mg/kg/injection, schedule: Q01DX009 (ip), vehicle: saline with Tween-80
[4] = endpoint: median survival time, dose: 64.0 mg/kg/injection, schedule: Q01DX009 (ip), vehicle: saline with Tween-80
[5] = endpoint: median survival time, dose: 128.0 mg/kg/injection, schedule: Q01DX009 (ip), vehicle: saline with Tween-80
[6] = endpoint: median survival time, dose: 256.0 mg/kg/injection, schedule: Q01DX009 (ip), vehicle: saline with Tween-80
[7] = endpoint: median survival time, dose: 512.0 mg/kg/injection, schedule: Q01DX009 (ip), vehicle: saline with Tween-80
[8] = endpoint: median survival time, dose: 8.0 mg/kg/injection, schedule: Q01DX009 (ip), vehicle: saline
[9] = endpoint: median survival time, dose: 32.0 mg/kg/injection, schedule: Q01DX005 (ip), vehicle: saline with Tween-80
[10] = endpoint: median survival time, dose: 64.0 mg/kg/injection, schedule: Q01DX005 (ip), vehicle: saline with Tween-80
[11] = endpoint: median survival time, dose: 128.0 mg/kg/injection, schedule: Q01DX005 (ip), vehicle: saline with Tween-80

## CCCCCC(=O)O[C@]1(C(C)=O)CC[C@H]2[C@@H]3CCC4=CC(=O)CC[C@]4(C)[C@H]3CC[C@@]21C
[1]
  T/C: 117 % of control
[2]
  T/C: 104 % of control
[3]
  T/C: 114 % of control
[4]
  T/C: 94 % of control
[5]
  T/C: 93 % of control
[6]
  T/C: 94 % of control
[7]
  T/C: 107 % of control

## C[C@]12C=CC(=O)C=C1CC[C@@H]1[C@@H]2CC[C@]2(C)OC(=O)CC[C@@H]12
[1]
  T/C: 95 % of control and 111 % of control
[2]
  T/C: 98 % of control and 102 % of control
[3]
  T/C: 101 % of control and 102 % of control
[4]
  T/C: 93 % of control and 102 % of control
[5]
  T/C: 90 % of control and 98 % of control
[6]
  T/C: 90 % of control and 98 % of control

## COc1cc([C@@H]2c3cc4c(cc3[C@@H](OC3OC5CO[C@@H](c6cccs6)OC5C(O)C3O)[C@H]3COC(=O)[C@H]23)OCO4)cc(OC)c1O (stereo not given in full)
endpoint: median survival time, dose: 0.25 mg/kg/injection, schedule: Q01DX009 (ip), vehicle: saline
  T/C: 101 % of control and 108 % of control
endpoint: median survival time, dose: 0.5 mg/kg/injection, schedule: Q01DX009 (ip), vehicle: saline
  T/C: 108 % of control and 111 % of control
endpoint: median survival time, dose: 1.0 mg/kg/injection, schedule: Q01DX009 (ip), vehicle: saline
  T/C: 111 % of control and 116 % of control
endpoint: median survival time, dose: 2.0 mg/kg/injection, schedule: Q01DX009 (ip), vehicle: saline
  T/C: 124 % of control and 114 % of control
endpoint: median survival time, dose: 4.0 mg/kg/injection, schedule: Q01DX009 (ip), vehicle: saline
  T/C: 122 % of control and 104 % of control
[8]
  T/C: 88 % of control

## CCCCN(C)N=Nc1ccc([N+](=O)[O-])cc1C(N)=O
endpoint: mean survival time, dose: 100.0 mg/kg/injection, schedule: Q01DX009 (ip), vehicle: saline with Tween-80
  T/C: 112 % of control
endpoint: mean survival time, dose: 200.0 mg/kg/injection, schedule: Q01DX009 (ip), vehicle: saline with Tween-80
  T/C: 122 % of control
endpoint: mean survival time, dose: 400.0 mg/kg/injection, schedule: Q01DX009 (ip), vehicle: saline with Tween-80
  T/C: 100 % of control
endpoint: mean survival time, dose: 600.0 mg/kg/injection, schedule: Q01DX009 (ip), vehicle: saline with Tween-80
  T/C: 89 % of control
[9]
  T/C: 102 % of control
[10]
  T/C: 108 % of control
[11]
  T/C: 110 % of control
endpoint: median survival time, dose: 256.0 mg/kg/injection, schedule: Q01DX005 (ip), vehicle: saline with Tween-80
  T/C: 103 % of control

## CN(Cc1cnc2nc(N)nc(N)c2n1)c1c(Cl)cc(C(=O)NC(CCC(=O)O)C(=O)O)cc1Cl (stereo not given)
endpoint: median survival time, dose: 16.0 mg/kg/injection, schedule: Q01DX005 (ip), vehicle: saline
  T/C: 101 % of control and 111 % of control
endpoint: median survival time, dose: 32.0 mg/kg/injection, schedule: Q01DX005 (ip), vehicle: saline
  T/C: 111 % of control
endpoint: median survival time, dose: 64.0 mg/kg/injection, schedule: Q01DX005 (ip), vehicle: saline
  T/C: 119 % of control and 120 % of control

## Nc1nc2c(c(=O)[nH]1)N(C=O)C(CNc1ccc(C(=O)N[C@@H](CCC(=O)O)C(=O)O)cc1)CN2 (stereo not given in full)
endpoint: median survival time, dose: 128.0 mg/kg/injection, schedule: Q01DX005 (ip), vehicle: saline
  T/C: 96 % of control and 106 % of control
endpoint: median survival time, dose: 256.0 mg/kg/injection, schedule: Q01DX005 (ip), vehicle: saline
  T/C: 95 % of control and 108 % of control
endpoint: median survival time, dose: 512.0 mg/kg/injection, schedule: Q01DX005 (ip), vehicle: saline
  T/C: 92 % of control and 96 % of control

## CCC(=O)O[C@H]1CC[C@H]2[C@@H]3CCC4=CC(=O)CC[C@]4(C)[C@H]3CC[C@]12C
[1]
  T/C: 121 % of control
[8]
  T/C: 109 % of control
[2]
  T/C: 110 % of control
endpoint: median survival time, dose: 16.0 mg/kg/injection, schedule: Q01DX009 (ip), vehicle: saline
  T/C: 102 % of control
[3]
  T/C: 118 % of control
endpoint: median survival time, dose: 32.0 mg/kg/injection, schedule: Q01DX009 (ip), vehicle: saline
  T/C: 104 % of control
[4]
  T/C: 118 % of control
[5]
  T/C: 110 % of control
endpoint: median survival time, dose: 128.0 mg/kg/injection, schedule: Q01DX009 (ip), vehicle: saline
  T/C: 224 % of control
[6]
  T/C: 101 % of control
endpoint: median survival time, dose: 256.0 mg/kg/injection, schedule: Q01DX009 (ip), vehicle: saline
  T/C: 120 % of control
[7]
  T/C: 105 % of control
endpoint: median survival time, dose: 512.0 mg/kg/injection, schedule: Q01DX009 (ip), vehicle: saline
  T/C: 116 % of control

## CN(C)/N=N/c1nc[nH]c1C(N)=O
endpoint: mean survival time, dose: 20.0 mg/kg/injection, schedule: Q01DX007 (ip), vehicle: DMSO
  T/C: 100 % of control
endpoint: mean survival time, dose: 20.0 mg/kg/injection, schedule: Q01DX007 (ip), vehicle: other
  T/C: 106 % of control
endpoint: mean survival time, dose: 25.0 mg/kg/injection, schedule: Q01DX009 (ip), vehicle: saline
  T/C: 113 % of control
endpoint: mean survival time, dose: 40.0 mg/kg/injection, schedule: Q01DX007 (ip), vehicle: DMSO
  T/C: 103 % of control
endpoint: mean survival time, dose: 40.0 mg/kg/injection, schedule: Q01DX007 (ip), vehicle: other
  T/C: 106 % of control
endpoint: mean survival time, dose: 50.0 mg/kg/injection, schedule: Q01DX009 (ip), vehicle: saline
  T/C: 111 % of control
endpoint: mean survival time, dose: 80.0 mg/kg/injection, schedule: Q01DX007 (ip), vehicle: DMSO
  T/C: 116 % of control
endpoint: mean survival time, dose: 80.0 mg/kg/injection, schedule: Q01DX007 (ip), vehicle: other
  T/C: 107 % of control
endpoint: mean survival time, dose: 100.0 mg/kg/injection, schedule: Q01DX009 (ip), vehicle: saline
  T/C: 111 % of control
endpoint: mean survival time, dose: 160.0 mg/kg/injection, schedule: Q01DX007 (ip), vehicle: DMSO
  T/C: 121 % of control
endpoint: mean survival time, dose: 160.0 mg/kg/injection, schedule: Q01DX007 (ip), vehicle: other
  T/C: 121 % of control
endpoint: mean survival time, dose: 320.0 mg/kg/injection, schedule: Q01DX007 (ip), vehicle: DMSO
  T/C: 103 % of control
endpoint: mean survival time, dose: 320.0 mg/kg/injection, schedule: Q01DX007 (ip), vehicle: other
  T/C: 112 % of control
endpoint: median survival time, dose: 16.0 mg/kg/injection, schedule: Q01DX005 (ip), vehicle: saline with Tween-80
  T/C: 104 % of control
[9]
  T/C: 120 % of control
[10]
  T/C: 110 % of control
[11]
  T/C: 113 % of control

## CC1CCC(NC(=O)N(CCCl)N=O)CC1 (stereo not given)
endpoint: median survival time, dose: 4.0 mg/kg/injection, schedule: Q01DX001 (ip), vehicle: other
  T/C: 123 % of control
endpoint: median survival time, dose: 6.25 mg/kg/injection, schedule: Q01DX001 (ip), vehicle: DMSO
  T/C: 116 % of control
endpoint: median survival time, dose: 6.25 mg/kg/injection, schedule: Q01DX001 (ip), vehicle: saline + alcohol
  T/C: 116 % of control
endpoint: median survival time, dose: 6.25 mg/kg/injection, schedule: Q01DX001 (oral), vehicle: saline + alcohol
  T/C: 109 % of control
endpoint: median survival time, dose: 12.5 mg/kg/injection, schedule: Q01DX001 (ip), vehicle: DMSO
  T/C: 116 % of control
endpoint: median survival time, dose: 12.5 mg/kg/injection, schedule: Q01DX001 (ip), vehicle: saline + alcohol
  T/C: 119 % of control
endpoint: median survival time, dose: 12.5 mg/kg/injection, schedule: Q01DX001 (oral), vehicle: saline + alcohol
  T/C: 109 % of control
endpoint: median survival time, dose: 16.0 mg/kg/injection, schedule: Q01DX001 (ip), vehicle: other
  T/C: 166 % of control
endpoint: median survival time, dose: 25.0 mg/kg/injection, schedule: Q01DX001 (ip), vehicle: saline + alcohol
  T/C: 166 % of control
endpoint: median survival time, dose: 25.0 mg/kg/injection, schedule: Q01DX001 (oral), vehicle: saline + alcohol
  T/C: 120 % of control
endpoint: median survival time, dose: 32.0 mg/kg/injection, schedule: Q01DX001 (ip), vehicle: other
  T/C: 333 % of control
endpoint: median survival time, dose: 50.0 mg/kg/injection, schedule: Q01DX001 (ip), vehicle: DMSO
  T/C: 123 % of control
endpoint: median survival time, dose: 50.0 mg/kg/injection, schedule: Q01DX001 (ip), vehicle: saline + alcohol
  T/C: 155 % of control
endpoint: median survival time, dose: 64.0 mg/kg/injection, schedule: Q01DX001 (ip), vehicle: other
  T/C: 88 % of control
endpoint: median survival time, dose: 100.0 mg/kg/injection, schedule: Q01DX001 (ip), vehicle: DMSO
  T/C: 169 % of control
endpoint: median survival time, dose: 100.0 mg/kg/injection, schedule: Q01DX001 (ip), vehicle: saline + alcohol
  T/C: 92 % of control
endpoint: median survival time, dose: 100.0 mg/kg/injection, schedule: Q01DX001 (oral), vehicle: saline + alcohol
  T/C: 246 % of control
